According to patent publication US6379659B1, “Keratin fiber strengthening agent and method for strengthening keratin fiber” (Takasago International Corporation, priority 1997, dated 2002):

Legend:
[1] = Breaking strength test on solvent-damaged human hair (Example 31); details: damaged (chloroform/ethanol-treated) hair of person soaked in treating agent; 25° C., 40% RH; average n = 10
Procedure: Hair samples 1 to 5 were prepared and subjected to a destructive test under the following conditions by the use of Shimadzu Autograph AGS-500B (manufactured by Shimadzu Corp.) to measure a breaking strength.
Hair: A hair having a length of about 15 cm and a diameter of about 0.08 to 0.1 mm, clamped 5.7 cm from each end.
(§1) Pulling speed: 5.0 cm/min
(§2) Atmosphere: 25° C., 40% RH
(§3) Healthy hair, cut off from a person at a beauty parlor, which had not been permed nor bleached, was used.
The healthy hair (untreated hair, sample 1) weighing 50 g was soaked in 450 ml of a 2:1 (by volume) mixture of chloroform and ethanol and subjected to ultrasonication for 15 minutes to remove lipids. The sample was washed with 250 ml of a 2:1 (by volume) mixture of chloroform and ethanol and then with 100 ml of acetone and dried to prepare solvent-treated hair as damaged hair (sample 2).
The solvent-treated hair weighing 40 g was soaked in a 5-fold weight of each of the blank treating agent of Comparative Example 1, the racemate-containing treating agent of Comparative Example 2, and the keratin fiber strengthening agent of Example 1 and subjected to ultrasonication for 15 minutes, followed by washing with five 1000 ml portions of water. The treated hair was dried under reduced pressure at 60° C. 2 hours and then under reduced pressure for 3 hours to prepare samples 3 to 5, respectively.

[2] = Young's modulus, breaking strength, elongation and toughness of solvent-damaged human hair (Examples 33, 35); details: damaged hair of person soaked in treating agent; n=10
Procedure: as §3
Healthy hair (untreated hair, sample 6) was treated with a chloroform-ethanol mixed solvent in the same manner as in Example 31 to prepare sample 7. Samples 8 to 10 were prepared in the same manner as for samples 3 to 5 of Example 31. The breaking strength of each sample was measured by means of Shimadzu Autograph. A Young's modulus was also measured.

[3] = Breaking strength test on dog hair (Example 36)
Procedure: Dog hair samples 11 to 15 were prepared as follows and subjected to a destructive test under the following conditions by the use of Shimadzu Autograph AGS-SOOB (manufactured by Shimadzu Corp.) to measure a breaking strength and a Young's modulus. The breaking strength and Young's modulus data obtained are also graphically represented in FIGS. 4 and 5, respectively.
Dog Hair: A dog hair having a length of about 10 to 15 cm and a diameter of about 0.08 to 0.1 mm, clamped 2 cm from each end.
as §1, §2
Healthy dog hairs collected from around the neck of a 4-year-old male Shetland sheepdog were used. The untreated hair as collected (sample 11) weighing 50 g was treated in the same manner as in Example 31 to prepare samples 12 to 15.

[4] = Breaking strength test, elongation and toughness of solvent-damaged human hair (Example 38)
Procedure: Samples (Samples 16 to 19) were prepared as described below and breaking strength test and measurement of elongation were carried out under the below-described measuring conditions by using Shimadzu Autograph AGS0599B (manufactured by Simadzu Corp). Based on the results, toughness (breaking strength×elongation) of each of Samples 16 to 19 was calculated.
Relative humidity: 40%, temperature: 25° C.
Hair employed for the test: A hair having a length of about 15 cm and a diameter of about 0.08 to 0.1 mm, clamped 5.0 cm from each end.
as §1
(b) Preparation of Samples (Samples 16 to 19)
as §3
The healthy hair (untreated hair, Sample 16) weighing 50 g was soaked in 450 ml of a 2:1 mixture of chloroform and ethanol and subjected to ultrasonication for 15 minutes to remove lipid components. The sample was then washed with 250 ml of a 2:1 mixture of chloroform and ethanol and then with 100 ml of acetone, followed by drying under reduced pressure, whereby organic-solvent-treated hair (Sample 17) was obtained.
The solvent-treated hair (Sample 17) weighing 40 g was soaked in a 5-fold weight of each of the treating agents and subjected to ultrasonication for 15 minutes. The hair was then washed five times with 1000 ml of water, followed by drying at 60° C. for 2 hours under reduced pressure and then drying for 3 hours under reduced pressure, whereby each of Samples 18 to 19 were obtained. Described specifically, Sample 18 was the hair treated with the treating agent (placebo treating agent), which had been prepared in Comparative Example 3, subsequent to the treatment with a solvent, while Sample 19 was the hair treated with the keratin fiber strengthening agent of the present invention (Compound-6-containing treating agent) which had been prepared in […].
The differences of the samples are summarized as follows.
Sample 16: Healthy hair (untreated)
Sample 17: Hair treated with the solvent
Sample 18: Hair treated with the solvent and then with the placebo treating agent prepared in Comparative Example
Sample 19: Hair treated with the solvent and then with the keratin fiber strengthening agent of the present invention (Compound-6-containing treating agent) prepared in Example 31

[5] = damaged dog hair soaked in treating agent, n = 10
[6] = solvent-treated hair of person soaked in treating agent, mean n=10

SMILES	Breaking Strength [1] [kgf]	Breaking Strength [2] [kgf]	Elongation [2] [mm]	Toughness (product of breaking strength and elongation) [2] [kgf × mm]	Breaking Strength per area ([3]; damaged dog hair soaked in treating agent) [kgf/mm^2]	Breaking Strength [3, 5] [kgf]	Young's Modulus [3, 5] [kgf/mm^2]	Improvements on breaking strength and Young's modulus, in words ([3]; not only human hair but dog hair)	Breaking strength of hair as compared with the placebo treating agent, in words ([4]; P<0.05 vs Sample 18)	Breaking Strength [4, 6] [Kgf]	Elongation [4, 6] [mm]	Toughness (breaking strength×elongation) [4, 6] [kgf·mm]
CCCCCCCCCCCCCCCCCC(=O)N[C@@H](CO)[C@H](O)CCCCCCCCCCCCCCC [Compound 1, (2S,3R)-2-octadecanoylaminooctadecane-1,3-diol]	0.2058	0.2941	27.08	7.9642	42.55	0.1196	605.240	significant improvements				
CCCCCCCCCCCCCCC[C@@H](O)[C@H](CO)NC(=O)C(O)CCCCCCCCCCCCCC (stereo partly drawn) [Compound 6, (2S,3R)-2-(2-hydroxyhexadecanoyl)aminooctadecane-1,3-diol]									significantly increases	0.266	26.02	6.921
